Key:
Assay type in all cases: in vivo
Lolium multiflorum Lam. = test: Test Example 5: herbicidal effect by foliage application, plastic box (symbol K); conditions: 320 g/ha, 3 weeks after application
How it was run: (§1)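 Herbicide, formulated as an emulsion and diluted in water, is sprayed onto the aerial parts of 14-day seedlings. These were grown at 25° C. to 30° C. in sterilized diluvial soil; effects are graded after 3 weeks.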

[1] = test system: Echinochloa crus-galli var. crus-galli; test: Test Example 4: herbicidal effect by soil treatment (symbol H); conditions: application herbicide amount 320 g/ha
How it was run: (§2)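 Seeds were sown in sterilized diluvial soil, covered with about 1.5 cm of soil, and the soil surface was sprayed with a water-diluted emulsion of the compound at a predetermined rate. Plants grew in a greenhouse at 25° C. to 30° C.; effects were scored visually 3 weeks after application.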

Scirpus juncoides = test: Test Example 1: herbicidal activity, application before weed generation in submerged conditions (symbol B); conditions: application herbicide amount 320 g/ha
How it was run: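 Mixed weed seeds sown in alluvial soil under 4 cm of water, with rice seedlings at the 2.5-leaf stage added. Same-day treatment: emulsion diluted to a set herbicide amount onto the water. Three weeks at 25–30 °C, then graded on a six-step scale.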

Amaranthus retroflexus = test: Test Example 5: herbicidal effect by foliage application, plastic box (symbol N); conditions: 320 g/ha, 3 weeks after application
How it was run: as §1

rice plant = test: Test Example 5: effect on crop by foliage application, plastic box (symbol b); conditions: 320 g/ha, 3 weeks after application
How it was run: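 Sterilized diluvial soil, plastic box (21 × 13 × 7 cm); spot sowing, ~1.5 cm soil cover; greenhouse 25–30° C.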

Galium spurium = test: Test Example 4: herbicidal effect by soil treatment (symbol Q); conditions: application herbicide amount 320 g/ha
How it was run: as §2

Apera spica-venti = test: Test Example 5: herbicidal effect by foliage application, plastic box (symbol L); conditions: 320 g/ha, 3 weeks after application
How it was run: as §1

Abutilon theophrasti = test: Test Example 4: herbicidal effect by soil treatment (symbol M); conditions: application herbicide amount 320 g/ha
How it was run: as §2

Row | SMILES | K: Lolium multiflorum Lam., herbicidal effect grade (Lolium multiflorum Lam.) | H (Echinochloa crus-galli var. crus-galli) herbicidal effect grade [1] | Herbicidal effect grade, B: Scirpus juncoides (Scirpus juncoides) | N: Amaranthus retroflexus, herbicidal effect grade (Amaranthus retroflexus) | b: directly sowed rice plant, effect on crop grade (rice plant) | Q (Galium spurium) herbicidal effect grade (Galium spurium) | L: Apera spica-venti, herbicidal effect grade (Apera spica-venti) | M (Abutilon theophrasti) herbicidal effect grade (Abutilon theophrasti) | K: Lolium multiflorum Lam., herbicidal effect (criteria of Test Example 1) (Lolium multiflorum Lam.) | Herbicidal effect grade, H: Echinochloa crus-galli var. crus-galli [1] | N: Amaranthus retroflexus, herbicidal effect (criteria of Test Example 1) (Amaranthus retroflexus) | b: directly sowed rice plant, effect on crop (criteria of Test Example 1) (rice plant) | Herbicidal effect grade, Q: Galium spurium (Galium spurium) | L: Apera spica-venti, herbicidal effect (criteria of Test Example 1) (Apera spica-venti) | Herbicidal effect grade, M: Abutilon theophrasti (Abutilon theophrasti)
1 | CC(CC1CC(O)=C(c2c(C)cc(C)cc2C)C1=O)=NOCC1CC1 (stereo not drawn) [1-024] | 5 (Herbicidal ratio of 90% or more (almost completely withered)) | 5 (Herbicidal ratio of 90% or more (almost completely withered)) | 5 (Herbicidal ratio of 90% or more (almost completely withered)) | 0 (Herbicidal ratio of 5% or lower (almost no effect)) | 5 (Herbicidal ratio of 90% or more (almost completely withered)) | 0 (Herbicidal ratio of 5% or lower (almost no effect)) | 5 (Herbicidal ratio of 90% or more (almost completely withered)) | 3 (Herbicidal ratio of 40% or higher and lower than 70%) |  |  |  |  |  |  | 
2 | CC(CC1CC(O)=C(c2c(C)cc(C)cc2C)C1=O)=NOCC(=O)N1CCOCC1 (stereo not drawn) [1-025] | 5 (Herbicidal ratio of 90% or more (almost completely withered)) | 5 (Herbicidal ratio of 90% or more (almost completely withered)) | 2 (Herbicidal ratio of 20% or higher and lower than 40%) | 0 (Herbicidal ratio of 5% or lower (almost no effect)) | 4 (Herbicidal ratio of 70% or higher and lower than 90%) | 0 (Herbicidal ratio of 5% or lower (almost no effect)) | 5 (Herbicidal ratio of 90% or more (almost completely withered)) | 0 (Herbicidal ratio of 5% or lower (almost no effect)) |  |  |  |  |  |  | 
3 | CC(CC1CC(O)=C(c2c(C)cc(C)cc2C)C1=O)=NOCc1ccccc1F (stereo not drawn) [1-026] | 5 (Herbicidal ratio of 90% or more (almost completely withered)) | 5 (Herbicidal ratio of 90% or more (almost completely withered)) | 5 (Herbicidal ratio of 90% or more (almost completely withered)) | 0 (Herbicidal ratio of 5% or lower (almost no effect)) | 5 (Herbicidal ratio of 90% or more (almost completely withered)) | 0 (Herbicidal ratio of 5% or lower (almost no effect)) | 5 (Herbicidal ratio of 90% or more (almost completely withered)) | 0 (Herbicidal ratio of 5% or lower (almost no effect)) |  |  |  |  |  |  | 
4 | CC(CC1CC(O)=C(c2c(C)cc(C)cc2C)C1=O)=NOCC(C)O (stereo not drawn) [1-027] | 5 (Herbicidal ratio of 90% or more (almost completely withered)) | 5 (Herbicidal ratio of 90% or more (almost completely withered)) | 3 (Herbicidal ratio of 40% or higher and lower than 70%) | 0 (Herbicidal ratio of 5% or lower (almost no effect)) | 5 (Herbicidal ratio of 90% or more (almost completely withered)) | 0 (Herbicidal ratio of 5% or lower (almost no effect)) | 5 (Herbicidal ratio of 90% or more (almost completely withered)) | 0 (Herbicidal ratio of 5% or lower (almost no effect)) |  |  |  |  |  |  | 
5 | CON=C(C)CC1CC(OCC#C[Si](C)(C)C)=C(c2c(C)cc(C)cc2C)C1=O (stereo not drawn) [1-031] | 4 (Herbicidal ratio of 70% or higher and lower than 90%) | 0 (Herbicidal ratio of 5% or lower (almost no effect)) | 4 (Herbicidal ratio of 70% or higher and lower than 90%) | 0 (Herbicidal ratio of 5% or lower (almost no effect)) | 3 (Herbicidal ratio of 40% or higher and lower than 70%) | 0 (Herbicidal ratio of 5% or lower (almost no effect)) | 0 (Herbicidal ratio of 5% or lower (almost no effect)) | 0 (Herbicidal ratio of 5% or lower (almost no effect)) |  |  |  |  |  |  | 
6 | CCCCCCCCC(=O)OC1=C(c2c(C)cc(C)cc2C)C(=O)C(CC(C)=NOC)C1 (stereo not drawn) [1-033] | 5 (Herbicidal ratio of 90% or more (almost completely withered)) | 5 (Herbicidal ratio of 90% or more (almost completely withered)) | 4 (Herbicidal ratio of 70% or higher and lower than 90%) | 4 (Herbicidal ratio of 70% or higher and lower than 90%) | 5 (Herbicidal ratio of 90% or more (almost completely withered)) | 3 (Herbicidal ratio of 40% or higher and lower than 70%) | 5 (Herbicidal ratio of 90% or more (almost completely withered)) | 5 (Herbicidal ratio of 90% or more (almost completely withered)) |  |  |  |  |  |  | 
7 | CON=C(C)CC1CC(OC(=O)CCC2CCCCC2)=C(c2c(C)cc(C)cc2C)C1=O (stereo not drawn) [1-035] | 5 (Herbicidal ratio of 90% or more (almost completely withered)) | 5 (Herbicidal ratio of 90% or more (almost completely withered)) | 5 (Herbicidal ratio of 90% or more (almost completely withered)) | 3 (Herbicidal ratio of 40% or higher and lower than 70%) | 5 (Herbicidal ratio of 90% or more (almost completely withered)) | 0 (Herbicidal ratio of 5% or lower (almost no effect)) | 5 (Herbicidal ratio of 90% or more (almost completely withered)) | 5 (Herbicidal ratio of 90% or more (almost completely withered)) |  |  |  |  |  |  | 
8 | COCC(CC1CC(O)=C(c2c(C)cc(C)cc2C)C1=O)=NOC (stereo not drawn) [1-040] | 5 (Herbicidal ratio of 90% or more (almost completely withered)) | 5 (Herbicidal ratio of 90% or more (almost completely withered)) | 2 (Herbicidal ratio of 20% or higher and lower than 40%) | 0 (Herbicidal ratio of 5% or lower (almost no effect)) | 5 (Herbicidal ratio of 90% or more (almost completely withered)) | 0 (Herbicidal ratio of 5% or lower (almost no effect)) | 5 (Herbicidal ratio of 90% or more (almost completely withered)) | 0 (Herbicidal ratio of 5% or lower (almost no effect)) |  |  |  |  |  |  | 
9 | CON=C(C)CC1CC(OC(=O)COc2ccccc2)=C(c2c(C)cc(C)cc2C)C1=O (stereo not drawn) [1-043] | 5 (Herbicidal ratio of 90% or more (almost completely withered)) | 5 (Herbicidal ratio of 90% or more (almost completely withered)) | 5 (Herbicidal ratio of 90% or more (almost completely withered)) | 3 (Herbicidal ratio of 40% or higher and lower than 70%) | 5 (Herbicidal ratio of 90% or more (almost completely withered)) | 0 (Herbicidal ratio of 5% or lower (almost no effect)) | 5 (Herbicidal ratio of 90% or more (almost completely withered)) | 4 (Herbicidal ratio of 70% or higher and lower than 90%) |  |  |  |  |  |  | 
10 | CON=C(CC1CC(O)=C(c2c(C)cc(C)cc2C)C1=O)C1CC1 (stereo not drawn) [1-046] | 5 (Herbicidal ratio of 90% or more (almost completely withered)) | 5 (Herbicidal ratio of 90% or more (almost completely withered)) | 5 (Herbicidal ratio of 90% or more (almost completely withered)) | 2 (Herbicidal ratio of 20% or higher and lower than 40%) | 5 (Herbicidal ratio of 90% or more (almost completely withered)) | 0 (Herbicidal ratio of 5% or lower (almost no effect)) | 5 (Herbicidal ratio of 90% or more (almost completely withered)) | 4 (Herbicidal ratio of 70% or higher and lower than 90%) |  |  |  |  |  |  | 
11 | CC(=O)CC1CC(O)=C(c2c(C)cc(Oc3ccccc3)cc2C)C1=O (stereo not drawn) [7-014] |  |  |  |  |  |  |  |  | 5 (Herbicidal ratio of 90% or more (almost completely withered)) | 0 (Herbicidal ratio of 5% or lower (almost no effect)) | 0 (Herbicidal ratio of 5% or lower (almost no effect)) | 3 (Herbicidal ratio of 40% or higher and lower than 70%) | 0 (Herbicidal ratio of 5% or lower (almost no effect)) | 0 (Herbicidal ratio of 5% or lower (almost no effect)) | 0 (Herbicidal ratio of 5% or lower (almost no effect))
